Read-outs that look alike come from different tables or passages of the source.
Columns and labels:
[1] = test system: pentylenetetrazole (PTZ)-induced convulsions; experiment: PTZ-induced convulsions; assay type: in vivo, male NIH-Swiss mice
Description: (§1) Male (25-30 g) NIH-Swiss mice (Harlan Sprague-Dawley, Frederick, Md.) were group housed in 32 cm×25 cm×15 cm plastic cages (10-15/cage) with food and water freely available. Mice were injected intraperitoneally with the test substance and challenged fifteen minutes later (unless otherwise specified) with NMDA (125 mg/kg), pentylenetetrazole (PTZ) (80mg/kg), strychnine (strych.) hemisulfate (2 mg/kg, as the base), bicuculline (bicuc.) (6 mg/kg) or maximal electroshock (MES). NMDA, PTZ, and strych. hemisulfate were dissolved in distilled water. Bicuculline was dissolved in 0.01 N HC1. These compounds were injected in a volume of 0.1 ml 1-aminocyclopropanecarboxylates were dissolved in distilled water and doses ≤500 mg/kg injected in a volume of 0.1 ml; doses >500 mg/kg were injected in proportionately larger volumes. Immediately after convulsant challenge, mice were placed in 28.5 cm×17.8 cm×12 cm plastic cages (1/cage) and observed for 15 minutes. The presence or absence of convulsions and the time to the first convulsive episode (latency) were noted. MES were produced by applying a 50 mA current through alligator clips attached to the pinnae for 0.2 s.

Overt behavioral effects = settings: for overt behavioral effects: ACPC 100-2000, ACPCE 39-195, ACPCM 19-571 mg/kg
NMDA-induced convulsions = NMDA-induced convulsions and death (anticonvulsant activity); assay type: in vivo, male NIH-Swiss mice; settings: for ED50: Mus musculus, ip, read-out: ED50, protection against NMDA-induced convulsions and death; for dose-response curve shape: NMDA-induced convulsions; for fold more potent than parent compound (ACPC): anticonvulsant potency in vivo
Description: as §1

[2] = molecular target: T1, strychnine-insensitive glycine receptors (NMDA receptor complex) (Rattus norvegicus, UniProt P35439); settings: cited from earlier work
T1 construct: Synaptic membranes were prepared from forebrains of adult; from tissue; host or cells: forebrain (whole brain minus cerebellum and brainstem) synaptic membranes of adult male Sprague-Dawley rats

[3] = test system: bicuculline-induced convulsions; assay type: in vivo, male NIH-Swiss mice
Description: as §1

[4] = test system: strychnine-induced convulsions; assay type: in vivo, male NIH-Swiss mice
Description: as §1

NMDA receptor complex = settings: compared with glycine; Marvizon et al, 1989; cited from earlier work
[5] = test system: motor performance (rotarod); experiment: Motor performance, rotarod; assay type: in vivo, NIH-Swiss mice; settings: for impairment of performance in rotarod test: ACPC 100-2000, ACPCM 19-571 mg/kg, MK-801 1 mg/kg, thirty minutes; for % Impairment, Rotarod: i.p., ACPC 400-2000, ACPCM 114-571, MK-801 1 mg/kg
Excerpt: (§2) Evaluation of motor performance:

[6] = test system: maximal electroshock seizures; experiment: Maximal electroshock seizures (MES); assay type: in vivo, male NIH-Swiss mice; settings: for effect on MES: ACPC 200-2000, ACPCM 114-571 mg/kg
Description: as §1

[7] = test system: strychnine insensitive glycine binding site of the N-methyl-D-aspartate (NMDA) receptor complex; settings: Marvizon, 1989; cited from earlier work
[8] = test system: motor performance (horizontal wire); experiment: Motor performance, horizontal (hanging) wire test; assay type: in vivo, NIH-Swiss mice; settings: for impairment of performance in hanging (horizontal) wire test: ACPC 100-2000, ACPCM 19-571 mg/kg, MK-801 1 mg/kg, thirty minutes; for % Impairment, Hanging Wire: i.p., ACPC 400-2000, ACPCM 114-571, MK-801 1 mg/kg
Excerpt: as §2

[9] = test system: NMDA-gated cation channels; settings: Nadler et al, 1988; cited from earlier work
[10] = molecular target: T1, strychnine-insensitive glycine receptors (NMDA receptor complex); experiment: Inhibition of [^3 H]glycine binding; assay type: male Sprague-Dawley rats (forebrain synaptic membranes); settings: rat forebrain synaptic membranes, 0-4°, 60 min
Description: Membrane preparation: Synaptic membranes were prepared from forebrains of adult (250-350 g) male Sprague-Dawley rats (Taconic Farms, Germantown, N.Y.) by modification of the method of Bristow et al, (1986). In brief, forebrains (whole brain minus cerebellum and brainstem) were weighed and then disrupted for 30 s (Ultra-Turrax, Model STD) in 10 volumes of 0.32 M sucrose containing 5 mM HEPES/4.5 mM Tris pH 7.4. The homogenate was diluted to 50 volumes with this buffer and centrifuged for 10 minutes (1000×g). […]
[^3 H]Glycine binding: Immediately prior to assay, aliquots were thawed at 0-40 and "washed" 3 more times as described above. Membranes (0.1-0.3 mg prot.) were incubated for 60 minutes at 0-4° in HEPES-Tris buffer containing 1 mM MgCl2, ([^3 H]glycine (20 Ci/mmol, ISN, Irvine, Calif.), and drugs as indicated. Nonspecific binding was defined using 1 mM glycine. Incubations (1 ml) were terminated by centrifugation (Eppendorf Model 5414 Microfuge, 5 minutes) and the pellets washed superficially with 1 ml of assay buffer. The pellets were solubilized with 0.5 ml of NCS (Amersham, Arlington Heights, Ill.), agitated for 45 minutes, and 0.05 ml of glacial acetic acid added. Four ml of OCS (Amersham) was added and the radioactivity measured in a Beckman LS 5801 liquid scintillation counter.

[11] = test system: [^3 H]glycine binding (NMDA receptor complex); settings: MK-801 10 μM; Marvizon and Skolnick, 1988; cited from earlier work
[12] = test system: strychnine-induced convulsions; settings: MK-801; Clineschmidt et al, 1982a; cited from earlier work
[13] = test system: bicuculline-induced convulsions; settings: MK-801; Clineschmidt et al, 1982a; cited from earlier work
[14] = test system: pentylenetetrazole (PTZ)-induced convulsions; settings: MK-801; Clineschmidt et al, 1982a; cited from earlier work
[15] = i.p., 15 min before NMDA 125 mg/kg, ACPC 100-500, ACPCE 39-195, ACPCM 19-190 mg/kg
[16] = ACPC 200-2000, ACPCM 114-571 mg/kg i.p.
[17] = NMDA 125 mg/kg, vehicle injected mice

NC1(C(=O)O)CC1 [ACPC, 1-aminocyclopropanecarboxylic acid]
latency to convulsions induced by PTZ ([1]; ACPC 400 mg/kg): not significantly altered | protection against PTZ-induced convulsions ([1]; ACPC 400 mg/kg): did not afford significant protection | Effect on convulsions induced by PTZ (80) ([1]; ACPC 400 mg/kg i.p., PTZ 80 mg/kg): - | overt behavioral effects (Overt behavioral effects): No overt behavioral effects | overt behavioral effects or neurotoxicity (Overt behavioral effects; mouse, in vivo): lack of overt behavioral effects or neuro-toxicity | therapeutic index versus competitive or non-competitive NMDA receptor antagonists (Overt behavioral effects; mouse, in vivo): greater therapeutic index | anticonvulsant effect still manifest after (duration) (NMDA-induced convulsions; ACPC 400 mg/kg): 30 min | maximum protection against NMDA-induced convulsions (NMDA-induced convulsions; ACPC 400 mg/kg): 85% | protection against NMDA-induced convulsions and death (efficacy, time) (NMDA-induced convulsions; ACPC 400 mg/kg, 15 minutes prior to NMDA): most efficacious | ED50 (NMDA-induced convulsions): 234 mg/kg | dose-response curve shape (NMDA-induced convulsions): "bell-shaped" dose-response curve | Complete protection against NMDA-induced convulsions (NMDA-induced convulsions; i.p.): inability of ACPC to completely block NMDA-induced convulsions | Effect on convulsions induced by NMDA (125) (NMDA-induced convulsions; [15]): + | IC50 ([2]; ACPC, Marvizon et al, 1989, read-out: Inhibition of [^3 H] glycine binding IC50): 38 ± 7 nM | inhibition of strychnine-insensitive [^3 H]glycine binding (type) ([2]; Marvizon et al, 1989): potent, competitive inhibitor | Ki ([2]; Marvizon et al, 1989, read-out: affinity K1 for strychnine-insensitive glycine receptors in vitro): 32 nM | latency to convulsions induced by bicuc. ([3]; ACPC 400 mg/kg): not significantly altered | protection against bicuc.-induced convulsions ([3]; ACPC 400 mg/kg): did not afford significant protection | Effect on convulsions induced by BICUC. (6) ([3]; ACPC 400 mg/kg i.p., bicuculline 6 mg/kg): - | latency to convulsions induced by strych. ([4]; ACPC 400 mg/kg): not significantly altered | protection against strych.-induced convulsions ([4]; ACPC 400 mg/kg): did not afford significant protection | Effect on convulsions induced by STRYCH. (2) ([4]; ACPC 400 mg/kg i.p., strychnine 2 mg/kg): - | enhancement of [3H]MK-801 binding (NMDA receptor complex): enhances [3H]MK-801 binding to this supramolecular complex with a lower efficacy than glycine | impairment of performance in rotarod test [5]: no impairment | % Impairment, Rotarod [5]: 0% | effect on MES [6]: Neither ACPC (200-2000 mg/kg) nor ACPCM (114-571 mg/kg) had a significant, dose-dependent effect | Effect on convulsions induced by MES [6, 16]: - | partial agonism at strychnine insensitive glycine binding site [7]: potent and selective partial agonist | impairment of performance in hanging (horizontal) wire test [8]: no impairment | % Impairment, Hanging Wire [8]: 0% | enhancement of [^3 H]TCP binding [9]: enhances [^3 H]TCP binding

CCOC(=O)C1(N)CC1 [ACPCE, ethyl l-aminocyclopropanecarboxylate]
IC50 [10]: > 40000 nM | overt behavioral effects (Overt behavioral effects): No overt behavioral effects | overt behavioral effects or neurotoxicity (Overt behavioral effects; mouse, in vivo): no overt behavioral effects or neurotoxicity were observed | ED50 (NMDA-induced convulsions): 100 mg/kg | dose-response curve shape (NMDA-induced convulsions): "bell-shaped" dose response curve | fold more potent than parent compound (ACPC) (NMDA-induced convulsions): ~ 2.3 fold | Complete protection against NMDA-induced convulsions (NMDA-induced convulsions; i.p.): neither ester could completely block NMDA-induced convulsions and deaths | Effect on convulsions induced by NMDA (125) (NMDA-induced convulsions; [15]): +

COC(=O)C1(N)CC1 [ACPCM, methyl 1-aminocyclopropanecarboxylate]
IC50 [10]: > 40000 nM | overt behavioral effects (Overt behavioral effects): No overt behavioral effects | overt behavioral effects or neurotoxicity (Overt behavioral effects; mouse, in vivo): no overt behavioral effects or neurotoxicity were observed | maximum efficacy apparent after injection (time) (NMDA-induced convulsions; ACPCM 114 mg/kg): 5 to 15 min | onset and duration of anticonvulsant action relative to ACPC (NMDA-induced convulsions; ACPCM 114 mg/kg): manifest more rapidly than ACPC but of shorter duration | ED50 (NMDA-induced convulsions): 46 mg/kg | dose-response curve shape (NMDA-induced convulsions): "bell-shaped" dose response curve | fold more potent than parent compound (ACPC) (NMDA-induced convulsions): ~ 5 fold | Complete protection against NMDA-induced convulsions (NMDA-induced convulsions; i.p.): neither ester could completely block NMDA-induced convulsions and deaths | Effect on convulsions induced by NMDA (125) (NMDA-induced convulsions; [15]): + | impairment of performance in rotarod test [5]: no impairment | % Impairment, Rotarod [5]: 0% | effect on MES [6]: Neither ACPC (200-2000 mg/kg) nor ACPCM (114-571 mg/kg) had a significant, dose-dependent effect | Effect on convulsions induced by MES [6, 16]: - | impairment of performance in hanging (horizontal) wire test [8]: no impairment | % Impairment, Hanging Wire [8]: 0%

C[C@]12N[C@H](Cc3ccccc31)c1ccccc12 [MK-801, (+)-5-Methyl-10,11-dihydro-5H-dibenzo [a,d]cyclo-hepten-5,10-imine, reference compound]
inhibition of activation of [^3 H]glycine binding by Mg^+2 [11]: non-competitively inhibits | hyperactivity (Overt behavioral effects; MK-801 1 mg/kg, thirty minutes after administration): profound hyperactivity | Effect on convulsions induced by NMDA (125) (NMDA-induced convulsions; MK-801 1 mg/kg i.p., positive control, superscript 3): + | protection against NMDA-induced lethality (NMDA-induced convulsions; MK-801 1 mg/kg, thirty minutes following administration): complete protection | Inhibition of [^3 H] glycine binding, mode ([2]; MK-801, Marvizon and Skolnick, 1988): noncom- | impairment of performance in rotarod test [5]: complete impairment | % Impairment, Rotarod [5]: 100% | Effect on convulsions induced by STRYCH. (2) [12]: - | Effect on convulsions induced by MES ([6]; MK-801 1 mg/kg i.p., superscripts 1,3): + | abolished hindclimb tonic extensor component of MES, % of mice ([6]; MK-801 1 mg/kg, thirty minutes before MES): 87% | Effect on convulsions induced by BICUC. (6) [13]: + | impairment of performance in hanging (horizontal) wire test [8]: complete impairment | % Impairment, Hanging Wire [8]: 100% | Effect on convulsions induced by PTZ (80) [14]: +

CN[C@H](CC(=O)O)C(=O)O [NMDA, N-methyl-D-aspartate, reference compound]
convulsions and death, mice affected (NMDA-induced convulsions; [17]): all | latency to convulsions (NMDA-induced convulsions; [17]): 4.6 ± 0.4 min

CN1CCc2cc3c(cc2[C@H]1[C@@H]1OC(=O)c2c1ccc1c2OCO1)OCO3 [bicuculline, reference compound]
convulsions, % of mice ([3]; bicuculline 6 mg/kg): 100% | latency to convulsions ([3]; bicuculline 6 mg/kg): 2.1 ± 0.3 min

C1CCc2nnnn2CC1 [pentylenetetrazole, reference compound]
convulsions, % of mice ([1]; PTZ 80 mg/kg): 100% | latency to convulsions ([1]; PTZ 80 mg/kg): 1.4 ± 0.2 min

O=C1C[C@@H]2OCC=C3CN4CC[C@]56c7ccccc7N1[C@H]5[C@H]2[C@H]3C[C@H]46 [strychnine, reference compound]
convulsions, % of mice ([4]; strychnine 2 mg/kg): 100% | latency to convulsions ([4]; strychnine 2 mg/kg): 3.1 ± 0.4 min

From patent publication US6017957A (priority 1989, dated 2000)
